The values below come from US20130296316A1, “Antiparasitic Agents Based On mTOR Inhibitors” (priority 2010, published 2013).

Each structure is given as a SMILES string. Like-named read-outs stand apart in the source and are kept apart here.

Assay [1] has as its system L. major promastigotes. The assay is described as follows: Potency assessment against Leishmania major promastigotes (growth, cell counting). It counts as cell-based. The following applies: for EC50 / IC50: Leishmania major; for EC50: promastigotes, average of three replicates, read-out: Effective concentration (EC50) L. major; for activity against L. major promastigotes in words: highest concentration tested; for IC50: Table 2B, read-out: L. major Promastigote IC50, growth inhibition.

The subject of assay [2] is L. donovani axenic amastigotes. In words: Potency assessment against Leishmania donovani axenic amastigotes (growth, cell counting). It counts as cell-based. As to conditions: for EC50 / IC50: Leishmania donovani; for EC50: axenic amastigotes, average of three replicates, read-out: Effective concentration (EC50) L. donovani axenic amastigotes; for activity against L. donovani axenic amastigotes in words: highest concentration tested; for IC50: Table 2B, read-out: L. donovani Axenic Amastigote IC50, growth inhibition.

For assay [3], the system named is T. brucei brucei Lister 427. The assay is described as follows: Potency assessment against T. brucei brucei Lister 427 bloodstream form (AlamarBlue, 72 h). It counts as cell-based, Trypanosoma brucei brucei. The following applies: Trypanosoma brucei. Background: Alamar Blue is a resazurin reagent that responds to reducing activity.
Assay [4] concerns T. cruzi trypomastigotes. The assay is described as follows: T. cruzi intracellular replication in NIH/3T3 host cells (β-galactosidase, CPRG). It counts as cell-based, Trypanosoma cruzi. The following applies: Trypanosoma cruzi; for EC50: NIH3T3, 96 h, trypomastigotes with 3T3 host cells, four days, three replicates within ±10.2%, read-out: Effective concentration (EC50) T. cruzi; for IC50: NIH3T3, Table 2B, read-out: T. Cruzi IC50, growth inhibition.

For assay [5], the system named is T. b. rhodesiense. The assay is described as follows: Potency assessment against T. b. rhodesiense EATRO3 bloodstream form (AlamarBlue, 72 h). Format: cell-based, Trypanosoma brucei rhodesiense. The following applies: Trypanosoma brucei, RHODESIENSE; for IC50: Table 2B, read-out: T. brucei rhod IC50, growth inhibition.
Assay [6] relates to L. major promastigotes. In words: Cell size and DNA content analysis in Leishmania (flow cytometry). It counts as cell-based, Leishmania major. The protocol:
L. major log phase promastigotes were inoculated at a concentration of 10^6 cells/ml into media with compounds as indicated, and incubated overnight with varying drug concentrations to assess cell size and DNA content. For cell size, forward scatter of live promastigotes was measured by a FACS flow cytometer (Becton Dickinson), utilizing dye exclusion with 5 μg/ml propidium iodide (PI) to gate for live cells. DNA content was determined by flow cytometry using fixed and permeabilized L. major stained with PI as previously described, but reducing the incubation time with PI and RNase A from 1 hour to 30 minutes. Histogram analysis was performed using CellQuest 3.1 software (BD Bioscience).
Background: In flow cytometry, cells or beads pass a laser one at a time.

The test system of assay [7] is T. brucei brucei Lister 427 bloodstream cells. In words: Morphological and cell cycle alterations in T. brucei (flow cytometry). Format: cell-based, Trypanosoma brucei brucei. As to conditions: 16 h, WYE-354 2 μM; for effect on cellular DNA content / cell cycle, T. b. brucei: PI-103 1 μM, Pp242 2 μM, NVP-BEZ235 100 nM. How it is done:
Flow cytometry was used to assess cell size and DNA content, to reveal a G1 arrest and inhibition of protein synthesis or G2 arrest and multinucleated cells. […]. After permeabilization with […], saponin (0.5 mg/mL final concentration), the culture was RNAse treated for 30 minutes (10 μg/mL final concentration) and stained with 20 μg/mL propidium iodide immediately before its acquisition in a FACscan cytometer. Cells incubated with equivalent concentration of drug solvent (DMSO) were included in each experiment as control population.

For assay [8], the system named is L. donovani promastigotes. In words: Potency assessment against Leishmania donovani promastigotes (growth, cell counting). Format: cell-based. The following applies: Leishmania donovani; for IC50: Table 2B, read-out: L. donovani Promastigote IC50, growth inhibition; for EC50: promastigotes, average of three replicates, read-out: Effective concentration (EC50) L. donovani promastigotes.

The target in assay [9] is mTOR (Homo sapiens, UniProt P42345). The following applies: cited from earlier work; for mTOR IC50 in words: mammalian cells / literature.
The target in assay [10] is PI3K p110α (Homo sapiens, UniProt P42336). The following applies: human enzyme, Table 1; cited from earlier work.
For assay [11], the system named is human cells. The following applies: literature, Table 1; read-out: Inhibition of Cell Growth EC50; cited from earlier work.
For assay [12], the system named is Leishmania. In words: Leishmania growth inhibition summarised across both species and stages. It counts as cell-based. As to conditions: range over L. major and L. donovani, promastigotes and amastigotes.
Setting [13] is: bloodstream form, average of three replicates, read-out: Effective concentration (EC50) T. b. brucei.
The mark [14] stands for this setting: overnight, PI-103 4 μM, WYE-354 25 μM, NVP-BEZ235 0.5 μM (EC60-EC90).
[15] abbreviates: bloodstream form, average of three replicates, read-out: Effective concentration (EC50) T. b. rhodesiense.

Broadly, the IC50 is the midpoint of a concentration-inhibition curve.

Sequence of PI3K p110α (P42336 whole entry): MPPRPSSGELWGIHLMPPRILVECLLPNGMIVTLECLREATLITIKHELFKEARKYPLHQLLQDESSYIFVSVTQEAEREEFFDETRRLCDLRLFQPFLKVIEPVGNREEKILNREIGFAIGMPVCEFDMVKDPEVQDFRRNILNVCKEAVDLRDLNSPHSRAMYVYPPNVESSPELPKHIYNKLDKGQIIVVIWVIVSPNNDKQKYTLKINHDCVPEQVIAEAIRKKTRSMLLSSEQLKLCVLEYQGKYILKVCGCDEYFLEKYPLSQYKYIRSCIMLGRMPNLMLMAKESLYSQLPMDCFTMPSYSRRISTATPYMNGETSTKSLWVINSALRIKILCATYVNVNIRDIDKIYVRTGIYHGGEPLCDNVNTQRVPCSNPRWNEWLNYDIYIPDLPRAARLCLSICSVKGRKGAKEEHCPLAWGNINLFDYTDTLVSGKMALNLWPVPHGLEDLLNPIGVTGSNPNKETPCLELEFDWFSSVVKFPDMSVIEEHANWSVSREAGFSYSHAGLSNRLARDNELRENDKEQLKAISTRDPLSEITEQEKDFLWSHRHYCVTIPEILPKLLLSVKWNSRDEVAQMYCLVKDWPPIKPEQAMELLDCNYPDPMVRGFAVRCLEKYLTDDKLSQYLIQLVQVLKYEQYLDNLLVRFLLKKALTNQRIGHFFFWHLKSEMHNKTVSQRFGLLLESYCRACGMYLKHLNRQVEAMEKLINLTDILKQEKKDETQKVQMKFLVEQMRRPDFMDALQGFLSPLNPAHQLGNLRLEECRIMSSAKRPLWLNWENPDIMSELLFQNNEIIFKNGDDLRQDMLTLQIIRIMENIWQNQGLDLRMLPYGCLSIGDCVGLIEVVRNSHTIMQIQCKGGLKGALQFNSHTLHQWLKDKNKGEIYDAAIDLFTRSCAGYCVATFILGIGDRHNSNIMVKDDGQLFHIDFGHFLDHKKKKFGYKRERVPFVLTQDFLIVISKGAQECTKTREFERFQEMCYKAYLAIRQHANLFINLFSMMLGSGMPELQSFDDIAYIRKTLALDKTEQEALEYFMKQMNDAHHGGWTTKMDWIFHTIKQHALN
Sequence of PI3K p110α (P27986 whole entry partner): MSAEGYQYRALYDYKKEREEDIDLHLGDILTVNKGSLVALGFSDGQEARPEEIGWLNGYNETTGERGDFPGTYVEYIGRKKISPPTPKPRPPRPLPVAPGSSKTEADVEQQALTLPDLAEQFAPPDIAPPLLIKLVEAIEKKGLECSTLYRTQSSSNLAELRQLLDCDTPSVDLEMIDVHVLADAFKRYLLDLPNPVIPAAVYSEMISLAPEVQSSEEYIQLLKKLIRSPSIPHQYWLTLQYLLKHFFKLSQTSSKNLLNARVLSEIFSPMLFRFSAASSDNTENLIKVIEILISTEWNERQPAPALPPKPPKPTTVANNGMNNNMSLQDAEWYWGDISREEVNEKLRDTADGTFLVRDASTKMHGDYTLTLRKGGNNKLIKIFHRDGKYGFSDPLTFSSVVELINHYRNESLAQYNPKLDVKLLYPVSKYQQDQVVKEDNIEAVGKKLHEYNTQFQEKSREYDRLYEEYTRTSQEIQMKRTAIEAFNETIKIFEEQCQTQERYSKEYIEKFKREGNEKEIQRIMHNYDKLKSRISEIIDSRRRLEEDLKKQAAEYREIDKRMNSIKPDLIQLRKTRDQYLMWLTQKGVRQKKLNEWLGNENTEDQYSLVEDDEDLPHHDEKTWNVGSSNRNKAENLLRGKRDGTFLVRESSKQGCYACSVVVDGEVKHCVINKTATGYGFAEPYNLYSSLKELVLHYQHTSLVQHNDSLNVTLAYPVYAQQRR

As to `O=c1cc(N2CCNCC2)oc2c(-c3ccccc3)cccc12` [LY303511, 2-piperazinyl-8-phenyl-4H-1-benzopyran-4-one], the EC50 in assay [1] is more than 25 µM; in assay [2], more than 5 µM; in [3] (setting [13]) it was more than 2000 nM; in [4] it was more than 10 µM. In [1], the “activity against L. major promastigotes in words” value was “inactive”. The “activity against L. donovani axenic amastigotes in words” value in assay [2] is “inactive”.
For `COc1ccc(-c2nc(N3CCOCC3)c3oc4ncccc4c3n2)cc1` [NEU-0000365], the IC50 in [4] is more than 50 µM; in assay [5], more than 5 µM.
The corresponding values for `CCOCCNc1nc(-c2cccc(OC)c2)nc2c1oc1ncccc12` [NEU-0000361] are more than 50 µM and more than 5 µM.
With `CC(C)n1nc(-c2cc3cc(O)ccc3[nH]2)c2c(N)ncnc21` [Pp242], the “effect on cell size and DNA content, L. major promastigotes” value (“effect on cell size and DNA content” for short) in assay [6] (higher concentrations of Pp242) was “G2 arrest and increase in cell size”; in [6] (lower concentrations of Pp242), “decrease in cell size and a G1 arrest”. In addition, the “effect on cellular DNA content / cell cycle, T. b. brucei” value in assay [7] is “G1 arrest”.
As to `COc1cccc(-c2nc(N3CCCCC3)c3oc4ncccc4c3n2)c1` [NEU-0000289], the IC50 in assay [1] was 7.65 µM; in [2] it was approximately 20 µM; in [4] it was 3.9 µM.
The corresponding values for `c1ccc(-c2nc(N3CCCCC3)c3oc4ncccc4c3n2)cc1` [NEU-0000291] are more than 10 µM, more than 10 µM and 12 µM.
On to `Nc1ccc(-c2nc(N3CCOCC3)c3cnn(C4CCN(Cc5ccccc5)CC4)c3n2)cc1` [NEU-00000233], for which the IC50 in assay [1] was less than 25 µM; in [8], approximately 25 µM; in [5], 3.7 µM.
For the compound `Oc1ccccc1-c1nc(N2CCOCC2)c2cnn(C3CCN(Cc4ccccc4)CC3)c2n1` [NEU-00000231], the IC50 in assay [1] was 2.78 µM; in [8] it was 8.01 µM; in [2], 3.02 µM; in assay [5], 2.23 µM.
`COC(=O)Nc1ccc(-c2nc(N3CCOCC3)c3cnn(C4CCN(C(=O)OC)CC4)c3n2)cc1` [WYE-354]: the EC50 is 4.1 ± 0.3 µM in [1]; 30 nM in assay [11]; 5.95 ± 0.84 µM in [8]; 6.1 ± 1.73 µM in [2]; 580 ± 260 nM in [3] (setting [13]); more than 10 µM in assay [4]. Besides, the EC50 was 4000 to 6000 nM in assay [12] (read-out: activity against Leishmania across both species and stages); 780 ± 80 nM in [5] (setting [15]). Further, the IC50 is 4 nM in [9] (human enzyme, Table 1) and 1000 nM in [10]. The “mTOR IC50 in words” value in assay [9] is “low nanomolar”. Besides, the “effect on cell size and DNA content” value in assay [6] (setting [14]) was “G1 arrest and a decrease in cell size”. In assay [7], the “effect on cellular DNA content / cell cycle, T. b. brucei” value was “no significant variations in cell cycle”. Further, the “effect on cell size, T. b. brucei” value in [7] is listed as “small but noticeable reduction in cell size”.
In the case of `CCOc1ccccc1-c1nc(N2CCCCC2)c2oc3ncccc3c2n1` [NEU-0000364], the values for the IC50 in [4] and in [5] were more than 50 µM and more than 5 µM, respectively.
With `CCOCCNc1nc(-c2ccccc2)nc2c1oc1ncccc12` [NEU-0000292], the IC50 is 4 µM in [1], 12.5 µM in assay [2] and more than 50 µM in [4].
On to `COc1ccc(-c2ccc3c(N4CCOCC4)nc(N4C[C@@H](C)O[C@@H](C)C4)nc3n2)cc1CO` [Ku-0063794], for which the EC50 in [1] is more than 25 µM; in [11], 30 nM; in assay [2], more than 5 µM; in assay [3] (setting [13]), 890 ± 140 nM; in [4] it was more than 10 µM. Moreover, the “activity against L. major promastigotes in words” value in assay [1] is “inactive”. For the same compound, the “activity against L. donovani axenic amastigotes in words” value in assay [2] is “inactive”.
Take `c1ccc(-c2nc(N3CCOCC3)c3oc4ncccc4c3n2)cc1` [NEU-0000290]: the IC50 in [1] was more than 20 µM; in [2], more than 20 µM; in assay [4], 1.5 µM.
Take `COc1cccc(-c2nc(N3CCOCC3)c3oc4ncccc4c3n2)c1` [NEU-0000288]: the IC50 in assay [1] is 4.07 µM; in [2], approximately 20 µM; in [4], 3.7 µM.
In the case of `O=c1cc(N2CCOCC2)nc2c3ccccc3ccn12` [Compound 401, 2-(morpholin-1-yl)pyrimido[2,1-alpha]isoquinolin-4-one], the EC50 is more than 25 µM in assay [1]; 1000 nM in [11]; more than 5 µM in assay [2]; more than 10000 nM in assay [3] (setting [13]); more than 10 µM in [4]. Also, the “activity against L. major promastigotes in words” value in assay [1] is “inactive”. Further, in assay [9], the “mTOR IC50 in words” value is reported as “low micromolar concentrations”. The IC50 in assay [10] was more than 100000 nM. In addition, the “activity against L. donovani axenic amastigotes in words” value in [2] was “inactive”.
For `Oc1cccc(-c2nc(N3CCOCC3)c3oc4ncccc4c3n2)c1` [PI-103], the EC50 in assay [1] is 0.32 ± 0.16 µM; in assay [11], 500 nM; in assay [8], 1.05 ± 0.28 µM; in [2] it was 0.62 ± 0.41 µM; in assay [3] (setting [13]), 214 ± 36 nM; in [3] (read-out: activity against T. b. brucei cultures), 200 nM. The EC50 was more than 25 µM in assay [4]; 320 to 1050 nM in assay [12] (read-out: inhibition of Leishmania across both species and stages); 105 ± 10 nM in [5] (setting [15]); 100 nM in assay [5] (read-out: activity against T. b. rhodesiense cultures). In addition, the “effect on cell size and DNA content” value in assay [6] (setting [14]) is “G1 arrest and a decrease in cell size”. For the same compound, the “effect on cellular DNA content / cell cycle, T. b. brucei” value in assay [7] was “G1 arrest”.
On to `CCOCCNc1nc(-c2cccc(O)c2)nc2c1oc1ncccc12` [NEU-0000362], for which the IC50 in assay [4] was more than 50 µM; in [5] it was more than 1 µM.
Regarding `c1ccc(CN2CCC(n3ncc4c(N5CCOCC5)nc(-c5ccncc5)nc43)CC2)cc1` [NEU-00000232], the IC50 in assay [1] is 6.54 µM; in assay [8], 8.06 µM; in [2] it was 2.43 µM; in assay [5], 3.05 µM.
Consider `CCOc1ccccc1-c1nc(N2CCOCC2)c2oc3ncccc3c2n1` [NEU-0000363], for which the IC50 in assay [4] was more than 50 µM; in [5], more than 5 µM.
For `CC(C)(C)OC(=O)Nc1ccc(-c2nc(N3CCOCC3)c3cnn(C4CCN(Cc5ccccc5)CC4)c3n2)cc1` [NEU-00000234], the IC50 in assay [1] is 5.49 µM; in assay [8], 6.34 µM; in assay [2] it was 6.9 µM; in [5] it was 2.19 µM.
Regarding `O=c1cc(N2CCOCC2)oc2c(-c3ccccc3)cccc12` [LY294002, 2-(4-morpholinyl)-8-phenyl-4H-1-benzopyran-4-one], the EC50 in [1] was more than 25 µM; in [2], more than 5 µM; in assay [3] (setting [13]), more than 2000 nM; in [4], more than 50 µM. Besides, the “activity against L. major promastigotes in words” value in assay [1] is “inactive”. Moreover, the “activity against L. donovani axenic amastigotes in words” value in [2] was “inactive”.
